Measured values as given in paper PMC10620772, “Design, synthesis, and biological evaluation of new pyrimidine-5-carbonitrile derivatives as novel anti-cancer, dual EGFR^WT/COX-2 inhibitors with docking studies” (RSC Advances, 2023).

Columns and labels:
Test in all cases: NCI60 antitumor screening
Format in all cases: cell-based, human
CCRF-CEM = tested on: CCRF-CEM
HL-60(TB) = tested on: HL-60(TB)
K-562 = tested on: K-562
MOLT-4 = tested on: MOLT-4
A549/ATCC = tested on: A549/ATCC
HOP-62 = tested on: HOP-62
NCI-H322M = tested on: NCI-H322M
NCI-H460 = tested on: NCI-H460
NCI-H522 = tested on: NCI-H522
HCT-15 = tested on: HCT-15
HT29 = tested on: HT29
KM12 = tested on: KM12
SF-268 = tested on: SF-268
SF-295 = tested on: SF-295
SF-539 = tested on: SF-539
SNB-19 = tested on: SNB-19
SNB-75 = conditions: Homo sapiens; 10 μM single dose; SNB-75 (CNS cancer); read-out: growth inhibition percent (GI%)
U251 = tested on: U251
MALME-3M = conditions: Homo sapiens
[1] = Homo sapiens, NCI-H322M, five-dose
[2] = Homo sapiens, SF-539, five-dose

For `N#Cc1c(-c2ccc(F)cc2)nc(SCc2ccccc2)nc1N1CCNCC1` [4e, 2-(Benzylthio)-4-(4-fluorophenyl)-6-(piperazin-1-yl) pyrimidine-5-carbonitrile], the GI50 (CCRF-CEM; Homo sapiens, CCRF-CEM, five-dose) was 13.9 µM, the CC50 (CCRF-CEM; Homo sapiens, CCRF-CEM, five-dose, read-out: LC50 (the source's name)) was 69 µM and the inhibition at 10 µM (CCRF-CEM; Homo sapiens, 10 μM single dose, CCRF-CEM (leukaemia), read-out: growth inhibition percent (GI%)) was > 100%. For the same molecule, the TGI (CCRF-CEM; five-dose) was 31.00 µM, the GI50 (HL-60(TB); Homo sapiens, HL-60, five-dose) was 4.5 µM and the CC50 (HL-60(TB); Homo sapiens, HL-60, five-dose, read-out: LC50 (the source's name)) was 46.5 µM. For the same molecule, the inhibition at 10 µM (HL-60(TB); Homo sapiens, 10 μM single dose, HL-60(TB) (leukaemia), read-out: growth inhibition percent (GI%)) was > 100%, the TGI (HL-60(TB); five-dose) was 17.30 µM and the GI50 (K-562; Homo sapiens, K562, five-dose) was 2.21 µM. For the same molecule, the CC50 (K-562; Homo sapiens, K562, five-dose, read-out: LC50 (the source's name)) was 18.7 µM, the inhibition at 10 µM (K-562; Homo sapiens, 10 μM single dose, (leukaemia), read-out: growth inhibition percent (GI%)) was > 100% and the TGI (K-562; five-dose) was 5.42 µM. For the same molecule, the GI50 (MOLT-4; Homo sapiens, MOLT-4, five-dose) was 7.07 µM, the CC50 (MOLT-4; Homo sapiens, MOLT-4, five-dose, read-out: LC50 (the source's name)) was 52.7 µM and the inhibition at 10 µM (MOLT-4; Homo sapiens, 10 μM single dose, MOLT-4 (leukaemia), read-out: growth inhibition percent (GI%)) was > 100%. The TGI (MOLT-4; five-dose) was 21.20 µM, the GI50 (A549/ATCC; Homo sapiens, A549, five-dose) was 8.1 µM and the LC50 (concentration killing 50% of cells) (A549/ATCC; Homo sapiens, A549, five-dose) was 50.2 µM. The inhibition at 10 µM (A549/ATCC; Homo sapiens, 10 μM single dose, A549/ATCC (non-small cell lung cancer), read-out: growth inhibition percent (GI%)) was > 100%, the TGI (A549/ATCC; five-dose) was 21.50 µM and the GI50 (HOP-62; Homo sapiens, HOP-62, five-dose) was 13.2 µM. For the same molecule, the CC50 (HOP-62; Homo sapiens, HOP-62, five-dose, read-out: LC50 (the source's name)) was 59.9 µM, the inhibition at 10 µM (HOP-62; Homo sapiens, 10 μM single dose, HOP-62 (non-small cell lung cancer), read-out: growth inhibition percent (GI%)) was > 100% and the TGI (HOP-62; five-dose) was 28.10 µM. The GI50 (NCI-H322M; [1]) was 14.3 µM, the LC50 (50% lethal concentration) (NCI-H322M; [1]) was 54.2 µM and the inhibition at 10 µM (NCI-H322M; Homo sapiens, 10 μM single dose, NCI-H322M (non-small cell lung cancer), read-out: growth inhibition percent (GI%)) was > 100%. For the same molecule, the TGI (NCI-H322M; five-dose) was 27.90 µM, the GI50 (NCI-H460; Homo sapiens, NCI-H460, five-dose) was 9.2 µM and the CC50 (NCI-H460; Homo sapiens, NCI-H460, five-dose, read-out: LC50 (the source's name)) was 53.9 µM. The inhibition at 10 µM (NCI-H460; Homo sapiens, 10 μM single dose, NCI-H460 (non-small cell lung cancer), read-out: growth inhibition percent (GI%)) was > 100%, the TGI (NCI-H460; five-dose) was 22.90 µM and the GI50 (NCI-H522; Homo sapiens, NCI-H522, five-dose) was 11.3 µM. For the same molecule, the CC50 (NCI-H522; Homo sapiens, NCI-H522, five-dose, read-out: LC50 (the source's name)) was 55.8 µM, the inhibition at 10 µM (NCI-H522; Homo sapiens, 10 μM single dose, NCI-H522 (non-small cell lung cancer), read-out: growth inhibition percent (GI%)) was > 100% and the TGI (NCI-H522; five-dose) was 25.10 µM. For the same molecule, the GI50 (HCT-15; Homo sapiens, HCT-15, five-dose) was 5.05 µM, the CC50 (HCT-15; Homo sapiens, HCT-15, five-dose, read-out: LC50 (the source's name)) was 43.8 µM and the inhibition at 10 µM (HCT-15; Homo sapiens, 10 μM single dose, HCT-15 (colon cancer), read-out: growth inhibition percent (GI%)) was > 100%. For the same molecule, the TGI (HCT-15; five-dose) was 17.50 µM, the inhibition at 10 µM (HT29; Homo sapiens, HT-29, 10 μM single dose, HT29 (colon cancer), read-out: growth inhibition percent (GI%)) was > 100% and the GI50 (HT29; Homo sapiens, HT-29, five-dose) was 3.3 µM. For the same molecule, the CC50 (HT29; Homo sapiens, HT-29, five-dose, read-out: LC50 (the source's name)) was 36.6 µM, the TGI (HT29; five-dose) was 10.50 µM and the GI50 (KM12; Homo sapiens, KM12, five-dose) was 17.1 µM. The CC50 (KM12; Homo sapiens, KM12, five-dose, read-out: LC50 (the source's name)) was 63.1 µM, the inhibition at 10 µM (KM12; Homo sapiens, 10 μM single dose, KM12 (colon cancer), read-out: growth inhibition percent (GI%)) was > 100% and the TGI (KM12; five-dose) was 32.80 µM. The GI50 (SF-268; Homo sapiens, SF-268, five-dose) was 12.9 µM, the CC50 (SF-268; Homo sapiens, SF-268, five-dose, read-out: LC50 (the source's name)) was 65.4 µM and the inhibition at 10 µM (SF-268; Homo sapiens, 10 μM single dose, SF-268 (CNS cancer), read-out: growth inhibition percent (GI%)) was > 100%. It also gave a TGI (SF-268; five-dose) of 29.10 µM, a GI50 (SF-295; Homo sapiens, SF-295, five-dose) of 15.8 µM and a CC50 (SF-295; Homo sapiens, SF-295, five-dose, read-out: LC50 (the source's name)) of 57.5 µM. The inhibition at 10 µM (SF-295; Homo sapiens, 10 μM single dose, SF-295 (CNS cancer), read-out: growth inhibition percent (GI%)) was > 100%, the TGI (SF-295; five-dose) was 30.10 µM and the GI50 (SF-539; [2]) was 15.7 µM. For the same molecule, the LC50 (SF-539; [2]) was 54.9 µM, the inhibition at 10 µM (SF-539; Homo sapiens, 10 μM single dose, SF-539 (CNS cancer), read-out: growth inhibition percent (GI%)) was > 100% and the TGI (SF-539; five-dose) was 29.40 µM. The GI50 (SNB-19; Homo sapiens, SNB-19, five-dose) was 14.2 µM, the CC50 (SNB-19; Homo sapiens, SNB-19, five-dose, read-out: LC50 (the source's name)) was 60.6 µM and the inhibition at 10 µM (SNB-19; Homo sapiens, 10 μM single dose, SNB-19 (CNS cancer), read-out: growth inhibition percent (GI%)) was > 100%. For the same molecule, the TGI (SNB-19; five-dose) was 29.30 µM, the inhibition at 10 µM (SNB-75) was > 100% and the inhibition at 10 µM (U251; Homo sapiens, U-251, 10 μM single dose, U251 (CNS cancer), read-out: growth inhibition percent (GI%)) was > 100%. For the same molecule, the GI50 (U251; Homo sapiens, U-251, five-dose) was 4.36 µM, the CC50 (U251; Homo sapiens, U-251, five-dose, read-out: LC50 (the source's name)) was 44.6 µM and the TGI (U251; five-dose) was 16.10 µM. The GI50 (MALME-3M; Malme-3M, five-dose) was 14.1 µM, the CC50 (MALME-3M; Malme-3M, five-dose, read-out: LC50 (the source's name)) was 56.3 µM and the inhibition at 10 µM (MALME-3M; 10 μM single dose, MALME-3M (melanoma), read-out: growth inhibition percent (GI%)) was > 100%.
